Initial response rate and IC50 data for 13 compounds are collected here from patent publication US11939314B2, “Quinolin-2-one derivatives” (MERCK PATENT GMBH, priority 2016, dated 2024).

For assay [1], the system named is GISTs with primary mutation. The following applies: secondary resistance emerges in almost all tumors; cited from earlier work.
For the next assay, the target named is T1, PDGFRalpha(V561D) (Homo sapiens, UniProt P16234, V561D).
T1 construct: recombinant human PDGFRalpha, amino acids 550end containing the V561 D mutation; 6His (N)
T1 sequence (P16234 550-1089 V561D): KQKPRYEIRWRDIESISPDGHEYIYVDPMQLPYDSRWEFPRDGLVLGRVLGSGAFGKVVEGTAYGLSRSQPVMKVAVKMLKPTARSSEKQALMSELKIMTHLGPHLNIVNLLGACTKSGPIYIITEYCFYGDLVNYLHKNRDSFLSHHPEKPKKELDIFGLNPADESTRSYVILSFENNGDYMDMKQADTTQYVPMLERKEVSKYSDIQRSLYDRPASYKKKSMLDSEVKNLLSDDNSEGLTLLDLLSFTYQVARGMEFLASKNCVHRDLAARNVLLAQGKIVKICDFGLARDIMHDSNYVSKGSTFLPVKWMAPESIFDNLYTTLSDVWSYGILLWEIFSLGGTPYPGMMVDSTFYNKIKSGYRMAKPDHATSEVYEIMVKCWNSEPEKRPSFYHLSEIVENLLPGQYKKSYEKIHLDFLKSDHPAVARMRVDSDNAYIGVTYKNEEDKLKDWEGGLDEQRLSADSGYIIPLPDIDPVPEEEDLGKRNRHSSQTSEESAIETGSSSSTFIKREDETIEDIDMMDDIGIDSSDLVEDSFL
Kind of assay: PDGFRalpha(V561D) assay. The format is biochemical. Conditions: recombinant human PDGFRalpha aa 550-end, 200 μM ATP, 1.4E-06 means 1.4×10^−6, read-out: Inhibition (IC50) of PDGFRα (V561D). The method in brief: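 Radiometric filter-binding assay: substrate phosphorylation by recombinant N-His-tagged human PDGFRα 550-end V561D was quenched with 3% phosphoric acid after 40 min at room temperature, then counted.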

A further assay deals with T2, c-Kit(V654A) (Homo sapiens, UniProt P10721, V654A).
T2 construct: amino acids 544-end containing the V654A mutation; GST (N)
T2 sequence (P10721 544-976 V654A): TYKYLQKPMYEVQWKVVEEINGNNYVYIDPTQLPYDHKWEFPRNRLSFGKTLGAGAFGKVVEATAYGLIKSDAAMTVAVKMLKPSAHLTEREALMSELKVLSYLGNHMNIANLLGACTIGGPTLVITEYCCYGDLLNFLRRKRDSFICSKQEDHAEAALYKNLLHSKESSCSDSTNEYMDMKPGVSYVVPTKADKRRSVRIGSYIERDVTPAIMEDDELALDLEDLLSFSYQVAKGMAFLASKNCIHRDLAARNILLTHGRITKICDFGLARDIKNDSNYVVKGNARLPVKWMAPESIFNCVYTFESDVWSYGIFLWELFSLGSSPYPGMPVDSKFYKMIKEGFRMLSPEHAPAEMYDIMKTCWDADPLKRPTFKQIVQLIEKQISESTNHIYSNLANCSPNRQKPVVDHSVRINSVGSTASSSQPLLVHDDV
Description: c-Kit(V654A) assay. The format is biochemical. The following applies: recombinant human c-Kit aa 544-end, 200 μM ATP, 1.4E-06 means 1.4×10^−6, read-out: Inhibition (IC50) of c-KIT (V654A). In a few lines:
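Radiometric filter-binding read-out: substrate 33P incorporation counted by scintillation after P30 filtermat washes in 75 mM phosphoric acid and methanol. Enzyme: N-GST recombinant human c-Kit aa 544-end carrying V654A.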

The structures appear in SMILES notation.

On to `Cc1ccc(NC(=O)c2ccc(CN3CCN(C)CC3)cc2)cc1Nc1nccc(-c2cccnc2)n1` [Imatinib, imatinib], for which the initial response rate in assay [1] is approximately 70%. Broadly, the IC50 is the concentration that gives 50% inhibition. On to `CC(=O)O[C@H]1CCN(C(=O)c2ccc(-n3cc(-c4cc5cc(F)ccc5[nH]c4=O)nn3)cc2)C1` [A180, acetic acid (S)-1-{4-[4-(6-fluoro-2-oxo-1,2-dihydro-quinolin-3-yl)-[1,2,3]triazol-1-yl]-benzoyl}-pyrrolidin-3-yl ester], for which the IC50 on PDGFRalpha(V561D) worked out at 0.5 nM; at c-Kit(V654A), 9.5 nM.

Consider `O=C(c1ccc(-n2cc(-c3cc4cc(F)ccc4[nH]c3=O)nn2)cc1)N1CCC(O)CC1` [A183, 6-fluoro-3-{1-[4-(4-hydroxy-piperidine-1-carbonyl)-phenyl]-1H-[1,2,3]triazol-4-yl}-1H-quinolin-2-one], for which the values for the IC50 at PDGFRalpha(V561D) and at c-Kit(V654A) were 26 nM and 7.5 nM, respectively. The corresponding values for `N#Cc1ccc2cc(-c3cn(-c4ccc(C(=O)N5CCOCC5)cc4)nn3)c(=O)[nH]c2c1` [A177, 3-{1-[4-(morpholine-4-carbonyl)-phenyl]-1H-[1,2,3]triazol-4-yl}-2-oxo-1,2-dihydro-quinoline-7-carbonitrile] are 57 nM and 170 nM. As to `CN1CCN(CCOc2ccc(-n3cc(-c4cc5ccccc5[nH]c4=O)nn3)cc2)CC1` [A72, 3-(1-{4-[2-(4-methyl-piperazin-1-yl)-ethoxy]-phenyl}-1H-[1,2,3]triazol-4-yl)-1H-quinolin-2-one], the figures for the IC50 at PDGFRalpha(V561D) and on c-Kit(V654A) were 4 nM and 11 nM, respectively.

For the compound `O=C(c1ccc(-n2cc(-c3cc4cc(F)ccc4[nH]c3=O)nn2)cc1)N1CCC1` [A280, 3-{1-[4-(azetidine-1-carbonyl)-phenyl]-1H-[1,2,3]triazol-4-yl}-6-fluoro-1H-quinolin-2-one], the IC50 worked out at 53 nM on PDGFRalpha(V561D) and 77 nM on c-Kit(V654A).

In the case of `CN(C)C(=O)c1ccc(-n2cc(-c3cc4cc(F)ccc4[nH]c3=O)nn2)cc1` [A18, 4-[4-(6-fluoro-2-oxo-1,2-dihydro-quinolin-3-yl)-[1,2,3]triazol-1-yl]-N,N-dimethyl-benzamide], the IC50 on PDGFRalpha(V561D) was 5 nM; on c-Kit(V654A) it was 15 nM.

For `CO[C@H]1CN(C(=O)c2ccc(-n3cc(-c4cc5cc(F)ccc5[nH]c4=O)cn3)cc2)C[C@@H]1OC` [A303, 3-{1-[4-((3S,4S)-3,4-dimethoxy-pyrrolidine-1-carbonyl)-phenyl]-1H-pyrazol-4-yl}-6-fluoro-1H-quinolin-2-one], the concentration for half-maximal inhibition (IC50) at PDGFRalpha(V561D) was 6 nM; at c-Kit(V654A) it was 37 nM. Regarding `CN1CCN(C(=O)c2ccc(-n3cc(-c4cc5cc(F)ccc5[nH]c4=O)nn3)cc2)CCC1=O` [A110, 6-fluoro-3-{1-[4-(4-methyl-5-oxo-[1,4]diazepane-1-carbonyl)-phenyl]-1H-[1,2,3]triazol-4-yl}-1H-quinolin-2-one], the IC50 came out at 28 nM on PDGFRalpha(V561D) and 39 nM on c-Kit(V654A).

Regarding `CO[C@@H]1C[C@@H](CO)N(C(=O)c2ccc(-n3cc(-c4cc5cc(F)ccc5[nH]c4=O)cn3)cc2)C1` [A301, 6-fluoro-3-{1-[4-((2S,4R)-2-hydroxymethyl-4-methoxy-pyrrolidine-1-carbonyl)-phenyl]-1H-pyrazol-4-yl}-1H-quinolin-2-one], the IC50 at PDGFRalpha(V561D) is 1 nM; on c-Kit(V654A), 43 nM. In the same order, the values of `O=C(c1ccc(-n2cc(-c3cc4cc(F)ccc4[nH]c3=O)nn2)cc1)N1CC2(COC2)C1` [A235, 6-fluoro-3-{1-[4-(2-oxa-6-aza-spiro[3.3]heptane-6-carbonyl)-phenyl]-1H-[1,2,3]triazol-4-yl}-1H-quinolin-2-one] are 140 nM and 42 nM. `CO[C@H]1CN(C(=O)c2ccc(-n3cc(-c4cc5cc(Cl)ccc5[nH]c4=O)nn3)cc2)C[C@@H]1OC` [A272, 6-chloro-3-{1-[4-((3S,4S)-3,4-dimethoxy-pyrrolidine-1-carbonyl)-phenyl]-1H-[1,2,3]triazol-4-yl}-1H-quinolin-2-one]: the results for the IC50 on PDGFRalpha(V561D) and on c-Kit(V654A) were 0.89 nM and 48 nM, respectively. On to `O=C(c1ccc(-n2cc(-c3cc4c(F)c(F)ccc4[nH]c3=O)nn2)cc1)N1CCNCC1` [A127, 5,6-difluoro-3-{1-[4-(piperazine-1-carbonyl)-phenyl]-1H-[1,2,3]triazol-4-yl}-1H-quinolin-2-one], for which the IC50 was 79 nM at PDGFRalpha(V561D) and 38 nM on c-Kit(V654A).
